Measured values taken from patent US7713696B2, “Genetic markers for prognosis of antifolate treatment efficacy” (Academisch Zeikenhuis Leiden H.O.D.N. Lumc, priority 2006, dated 2010).

Key:
recent-onset RA patients [1] = assay: Clinical response to methotrexate monotherapy (DAS) in genotyped patients of the BeSt trial; format: in vivo, human; settings: for Good clinical response at six months, number of patients / Good clinical response at six months, percentage of patients: DAS≦2.4
Source text: The 247 patients enrolled in the study was a sub-cohort of 508 patients participating in the BeSt trial (25). Inclusion criteria for this trial were fulfilment of the American College of Rheumatology (ACR) 1987 criteria, age of 18 years or older, a disease duration of less than 2 years. All patients had to have an active disease defined as ≧6/66 swollen joints and ≧6/68 tender joints and either an ESR ≧28 mm/hr or a Visual Analogue Scale (VAS) for global health ≦20 mm (on a scale of 0-100, 0=worst, 100=best).
The BeSt trial is a randomized, multi-centre, single-blinded, clinical study comparing the clinical efficacy of four different treatment strategies in early rheumatoid arthritis; sequential monotherapy (n=126 starting with methotrexate), step-up to combination therapy with sulphasalazine (n=121 starting with methotrexate), initial combination therapy with methotrexate, sulphasalazine and a high tapered dose of prednisolone (n=133) or initial biologic therapy with infliximab and methotrexate (n=128). In the present study, only patients allocated to initial single use of methotrexate were selected (n=247).
The primary objective of treatment in the BeSt study was achieving good clinical response as defined by the DAS≦2.4 (26-28). The DAS is a validated composite outcome measure consisting of the Ritchie articular index (RAI), the number of swollen joints (SJC, out of 44), general well being as indicated by the patient on a visual analogue scale (VAS), and the Erythrocyte Sedimentation Rate (ESR). A research nurse who remained blinded for the allocated treatment group scored the DAS every three months.
All selected patients started with oral methotrexate 7.5 mg weekly, increased to 15 mg weekly after 4 weeks, combined with folic acid (1 mg per day). In case of insufficient clinical response at three months of follow-up (DAS>2.4), the dosage was increased stepwise to 25 mg weekly, either orally or parenterally as decided by the rheumatologist. If the clinical response remained insufficient with methotrexate 25 mg weekly, patients were treated according to the next step of the BeSt protocol; patients with methotrexate sequential monotherapy switched to sulphasalazine 1000 mg twice daily; patients with initial step-up combination therapy, sulphasalazine 1000 mg twice daily was added to methotrexate. Concomitant therapies with nonsteroidal anti-inflammatory drugs (NSAIDs), as well as intra-articular injections with corticosteroids, were allowed for all treatment groups. For current analysis, clinical data for the first six months of follow-up were used, representing methotrexate treatment only.
“Responders” were defined as patients with DAS ≦2.4 (good clinical response) based on EULAR response criteria (26-28) and ‘non-responders ’ as patients with DAS >2.4 at six months of follow up.
Differences in baseline characteristics were analysed by Student's t-test for continuous variables or Chi-square test for dichotomous variables. Differences in genotype distribution for response and toxicity were tested by 3 by 2 cross tabs for each genotype, and by 2 by 2 cross tabs for carriers versus non-carriers analysis with the two-sided Chi-square test. We used binary logistic analysis in case of differences in genotype distribution, to calculate odds ratios for achieving good response or experiencing adverse drug events. Age and gender were identified as possible confounders and were used as covariates in all regression analyses. The primary efficacy endpoint was good clinical response at six months (DAS≦2.4). DAS good clinical response status required patients to be present at a given time point; no values were carried forward. Secondary endpoints were good clinical improvement defined as change in DAS>1.2 (ΔDAS>1.2) and moderate clinical improvement defined as change in DAS>0.6 (ΔDAS>0.6). […]

[2] = tested on: Rheumatoid arthritis (RA) patients; settings: literature refs 7-9; cited from earlier work
recent-onset RA patients [3] = assay: Adverse drug events during six months of methotrexate therapy, BeSt trial; format: in vivo, human
Method: Toxicity was evaluated by counting each reported adverse drug event and its consequences for the patient and treatment. Adverse drug events were spontaneously reported by the patients, or were reported as a result of non-specific questioning on patients' well-being by the investigator, by physical examination or laboratory measurements during follow up. In case of adverse drug events, methotrexate was continued at the lowest tolerated dose, or if methotrexate was not tolerated at all, the DMARD therapy was adjusted according to the protocol. Of all reported adverse drug events, the following non-infectious adverse drug events were evaluated explicitly: gastrointestinal adverse drug events defined as patients' general well-being, nausea, vomiting, diarrhea, and constipation; liver adverse drug events defined as all cases of elevated functional liver enzymes resulting in methotrexate dose adjustment or discontinuation; pneumonitis; skin and mucosal disorders. Moreover, patients were evaluated for leucopenia (<4.10^9/L), ALAT 3 times upper limit of normal (>135 U/L) and for alkaline phosphatase (AF) 3 times the upper limit of normal (>360 U/L).
For toxicity analysis, all patients who altered therapy from methotrexate before six months of follow-up were verified for adverse drug events after change of therapy and included in the analysis. The analyses of laboratory measurements were performed for completers only. The toxicity regression analysis was tested for the following confounders: weight, creatinine clearance, methotrexate dosage group (15 or 25 mg) and use of alcohol.

[4] = ITPA CC genotype, 15 mg weekly, six months
[5] = all patients with toxicity data (n=200)

SMILES: CN(Cc1cnc2nc(N)nc(N)c2n1)c1ccc(C(=O)N[C@@H](CCC(=O)O)C(=O)O)cc1 [methotrexate]
- Good clinical response, Methotrexate 15 mg weekly, percentage (recent-onset RA patients [1]; ITPA CA genotype, 15 mg weekly, six months): (60%)
- Good clinical response, Methotrexate 25 mg weekly, number of responders/patients (recent-onset RA patients [1]; ITPA CA genotype, six months): 4/22
- Good clinical response, Methotrexate 25 mg weekly, percentage (recent-onset RA patients [1]; ITPA CA genotype, six months): (18%)
- Good clinical response at six months, number of patients (recent-onset RA patients [1]; ITPA CA genotype): 7
- Good clinical response at six months, percentage of patients (recent-onset RA patients [1]; ITPA CA genotype): (23%)
- Good clinical response, Methotrexate 15 mg weekly, number of responders/patients (recent-onset RA patients [1]; [4]): 38/47
- Good clinical response, Methotrexate 15 mg weekly, percentage (recent-onset RA patients [1]; [4]): (81%)
- Good clinical response, Methotrexate 25 mg weekly, number of responders/patients (recent-onset RA patients [1]; ITPA CC genotype, six months): 39/107
- Good clinical response, Methotrexate 25 mg weekly, percentage (recent-onset RA patients [1]; ITPA CC genotype, six months): (36%)
- Good clinical response at six months, number of patients (recent-onset RA patients [1]; ITPA CC genotype): 79
- Good clinical response at six months, percentage of patients (recent-onset RA patients [1]; ITPA CC genotype): (45%)
- good clinical response percentage at 6 months (recent-onset RA patients [1]; ITPA CC genotyped): 50%
- percentage responders (DAS≦2.4) at six months (recent-onset RA patients [1]; overall population): 47%
- response rate at six months (recent-onset RA patients [1]; patients carrying all the favourable genotypes (n=16)): 88%
- odds ratio for achieving good clinical response (recent-onset RA patients [1]; patients carrying all the favourable genotypes (n=16), logistic regression): 27.8
- response rate at six months (recent-onset RA patients [1]; patients carrying all three unfavourable genotypes (n=10)): 10%
- patients showing good clinical response [2]: about 40%
- Adverse drug events at six months, number of patients with event/patients (recent-onset RA patients [3]; AMPD1 CC genotype): 42/146
- Adverse drug events at six months, percentage of patients (recent-onset RA patients [3]; AMPD1 CC genotype): (29%)
- Adverse drug events at six months, number of patients with event/patients (recent-onset RA patients [3]; AMPD1 CT genotype): 16/50
- Adverse drug events at six months, percentage of patients (recent-onset RA patients [3]; AMPD1 CT genotype): (32%)
- Adverse drug events at six months, number of patients with event/patients (recent-onset RA patients [3]; AMPD1 TT genotype): 1/3
- Adverse drug events at six months, percentage of patients (recent-onset RA patients [3]; AMPD1 TT genotype): (33%)
- Adverse drug events at six months, number of patients with event/patients (recent-onset RA patients [3]; ATIC CC genotype): 21/94
- Adverse drug events at six months, percentage of patients (recent-onset RA patients [3]; ATIC CC genotype): (22%)
- Adverse drug events at six months, number of patients with event/patients (recent-onset RA patients [3]; ATIC CG genotype): 33/91
- Adverse drug events at six months, percentage of patients (recent-onset RA patients [3]; ATIC CG genotype): (36%)
- times more likely to experience any adverse drug event (recent-onset RA patients [3]; ATIC G-allele carriers, six months, not significant after adjustment): 2 times
- Adverse drug events at six months, number of patients with event/patients (recent-onset RA patients [3]; ATIC GG genotype): 6/15
- Adverse drug events at six months, percentage of patients (recent-onset RA patients [3]; ATIC GG genotype): (40%)
- Adverse drug events at six months, number of patients with event/patients (recent-onset RA patients [3]; ITPA CA genotype): 8/30
- Adverse drug events at six months, percentage of patients (recent-onset RA patients [3]; ITPA CA genotype): (27%)
- Adverse drug events at six months, number of patients with event/patients (recent-onset RA patients [3]; ITPA CC genotype): 51/169
- Adverse drug events at six months, percentage of patients (recent-onset RA patients [3]; ITPA CC genotype): (30%)
- Gastrointestinal (general wellbeing, nausea, vomiting, diarrhoea, constipation), frequency at 6 months, number of patients (recent-onset RA patients [3]; [5]): 26
- Gastrointestinal (general wellbeing, nausea, vomiting, diarrhoea, constipation), frequency at 6 months, percentage (recent-onset RA patients [3]; [5]): (13.0%)
- Hepatic elevated liver enzymes, frequency at 6 months, number of patients (recent-onset RA patients [3]; [5]): 16
- Hepatic elevated liver enzymes, frequency at 6 months, percentage (recent-onset RA patients [3]; [5]): (8%)
- Overall adverse drug events, total population, frequency at 6 months, number of patients (recent-onset RA patients [3]; [5]): 60
- Overall adverse drug events, total population, frequency at 6 months, percentage (recent-onset RA patients [3]; [5]): (30%)
- Pneumonitis, frequency at 6 months, number of patients (recent-onset RA patients [3]; [5]): 0
- Pneumonitis, frequency at 6 months, percentage (recent-onset RA patients [3]; [5]): (0%)
- Skin and mucosa disorders, frequency at 6 months, number of patients (recent-onset RA patients [3]; [5]): 17
- Skin and mucosa disorders, frequency at 6 months, percentage (recent-onset RA patients [3]; [5]): (8.5%)
- study population that experienced at least one adverse drug event during six months of treatment (recent-onset RA patients [3]; n=60 of 200): Thirty
- odds ratio for adverse drug events (recent-onset RA patients [3]; non-responders carrying the ATIC G-allele compared to all ATIC G-allele carriers, 95% CI 1.1,7.5): 2.8
- odds ratio for adverse drug events (recent-onset RA patients [3]; patients with good clinical response at six months compared to non-responders, 95% CI 0.22, 0.91): 0.45
